Our source for the Activity and UI values is ChEMBL document CHEMBL5543086, “Discovery of novel NSAID hybrids as cPLA2/COX-2 dual inhibitors alleviating rheumatoid arthritis via inhibiting p38 MAPK pathway” (Eur J Med Chem, 2024).

Calls of active or inactive are those of the source.

A short description of data set [1]: Toxicity in male Wistar rat assessed as gastrointestinal damage by measuring number of ulcers at 50 mg/kg administered by gavage and measured after 6 hrs (reference value: 0). The settings on record: in vivo, po. Type of data set: organism-based.
A short description of data set [2]: Toxicity in male Wistar rat assessed as gastrointestinal damage by measuring level-3 ulcers with >3 mm area at 50 mg/kg administered by gavage and measured after 6 hrs. Particulars: in vivo, po. Type of data set: organism-based.
The nature of data set [3]: Toxicity in male Wistar rat assessed as gastrointestinal damage by measuring ulcer index at 50 mg/kg administered by gavage and measured after 6 hrs. The settings on record: in vivo, po. It is filed as organism-based.
The subject of data set [4] is Rattus norvegicus. Kind of data set: Antiarthritic activity in Freund's complete adjuvant induced Lewis rat model of arthritis assessed as reduction in joint deformities induced walking and polyarthritis symptoms at 20 mg/kg, po administered every 24 to 48 hrs for 28 days post immunization starting from day 8 post immunization. The settings on record: time 21.0 day. Type of data set: functional, organism-based.

Data set [5] deals with RAW264.7. Kind of data set: Antiinflammatory activity against LPS-induced mouse RAW264.7 cells assessed as inhibition of cPLA2 protein expression pretreated for 1 hr followed by LPS stimulation and measured after 24 hrs by Western blot analysis. It is filed as functional, cell-based. Particulars: dose 2.5-10 µM, time 25.0 hrs. (In general: A western blot detects proteins with antibodies after separation by electrophoresis.)

Data set [6] in a line: Toxicity in male Wistar rat assessed as gastrointestinal damage by measuring ulcer index at 100 mg/kg administered by gavage and measured after 6 hrs. Type of data set: organism-based. The settings on record: in vivo, po.
The species entered for data set [7] is Mus musculus. Description: Antiinflammatory activity in mouse model of cotton pellet implantation-induced granuloma. It is filed as functional, organism-based.
Data set [8] concerns Rattus norvegicus. Description: Immunomodulatory activity in Freund's complete adjuvant induced Lewis rat model of arthritis assessed as increase in CD4positive CD25positive Treg cells in peripheral blood at 20 mg/kg, po administered every 24 hrs for 28 days post immunization starting from day 8 post immunization by flow cytometry analysis. Particulars: time 21.0 day. It is filed as functional, organism-based.

A short description of data set [9]: Toxicity in Lewis rat model of Freund's complete adjuvant induced arthritis assessed as effect on growth by measuring reduction in body weight at 20 mg/kg, po administered every 24 to 48 hrs for 28 days post immunization starting from day 8 post immunization. Type of data set: organism-based. Particulars: in vivo, 504 h, time 21 day.
In data set [10] the test system is Rattus norvegicus. Kind of data set: Antiarthritic activity in Freund's complete adjuvant induced Lewis rat model of arthritis assessed as reduction in IL-6 level in serum at 20 mg/kg, po administered every 24 to 48 hrs for 28 days post immunization starting from day 8 post immunization by ELISA. Particulars: time 21.0 day. It is filed as functional, organism-based. (In an ELISA, binding on a coated surface is turned into a signal by an enzyme label.)

The target of data set [11] is T1, Cytosolic phospholipase A2 (Mus musculus) (UniProt P47713).
T1 sequence (whole entry): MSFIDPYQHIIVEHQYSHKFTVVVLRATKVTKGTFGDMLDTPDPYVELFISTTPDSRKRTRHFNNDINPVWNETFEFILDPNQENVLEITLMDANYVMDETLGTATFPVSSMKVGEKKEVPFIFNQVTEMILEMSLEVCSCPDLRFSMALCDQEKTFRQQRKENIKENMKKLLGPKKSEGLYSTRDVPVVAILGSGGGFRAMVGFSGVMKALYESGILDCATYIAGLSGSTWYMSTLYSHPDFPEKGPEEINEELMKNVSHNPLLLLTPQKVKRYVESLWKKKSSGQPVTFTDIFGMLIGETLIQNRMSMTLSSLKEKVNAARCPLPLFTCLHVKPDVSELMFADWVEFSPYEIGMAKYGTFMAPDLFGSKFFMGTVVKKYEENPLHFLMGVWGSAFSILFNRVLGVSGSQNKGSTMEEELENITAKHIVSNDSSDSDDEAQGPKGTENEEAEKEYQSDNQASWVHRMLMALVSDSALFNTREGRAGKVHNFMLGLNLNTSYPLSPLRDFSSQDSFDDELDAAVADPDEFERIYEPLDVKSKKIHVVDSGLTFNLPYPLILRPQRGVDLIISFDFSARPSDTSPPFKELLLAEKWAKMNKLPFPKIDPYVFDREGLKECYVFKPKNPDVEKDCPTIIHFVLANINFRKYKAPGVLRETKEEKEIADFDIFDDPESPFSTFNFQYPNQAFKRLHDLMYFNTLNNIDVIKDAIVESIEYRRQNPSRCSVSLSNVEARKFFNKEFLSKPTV
Description: Binding affinity to cPLA2 in LPS-induced mouse RAW264.7 cells assessed as thermal stability at 45 to 53 degreeC at 30 uM pretreated with LPS for 24 hrs followed by compound addition and measured after 2 hrs by CETSA. It is filed as cell-based.

Data set [12] concerns RAW264.7. Description: Antiinflammatory activity against LPS-induced mouse RAW264.7 cells assessed as inhibition of iNOS protein expression pretreated for 1 hr followed by LPS stimulation and measured after 24 hrs by Western blot analysis. It is filed as functional, cell-based. The settings on record: dose 2.5-10 µM, time 25.0 hrs.
Data set [13] relates to RAW264.7. Kind of data set: Antiinflammatory activity against LPS-induced mouse RAW264.7 cells assessed as inhibition of phosphorylated p38 MAPK protein expression pretreated for 1 hr followed by LPS stimulation and measured after 24 hrs by Western blot analysis. It is filed as functional, cell-based. The settings on record: dose 2.5-10 µM, time 25.0 hrs.
Data set [14] concerns Rattus norvegicus. Kind of data set: Antiarthritic activity in Freund's complete adjuvant induced Lewis rat model of arthritis assessed as reduction in RORgammat protein expression at 20 mg/kg, po administered every 24 to 48 hrs for 28 days post immunization starting from day 8 post immunization by Western blot analysis. Particulars: time 21.0 day. Type of data set: functional, organism-based.

Data set [15] relates to Rattus norvegicus. Kind of data set: Antiarthritic activity in Freund's complete adjuvant induced Lewis rat model of arthritis assessed as modulation of immune system responses by measuring reduction in spleen weight at 20 mg/kg, po administered every 24 to 48 hrs for 28 days post immunization starting from day 8 post immunization. The settings on record: time 21.0 day. Type of data set: functional, organism-based.

Data set [16] has as its system RAW264.7. Description: Antiinflammatory activity against LPS-induced mouse RAW264.7 cells assessed as inhibition of COX-2 protein expression pretreated for 1 hr followed by LPS stimulation and measured after 24 hrs by Western blot analysis. It is filed as functional, cell-based. The settings on record: dose 2.5-10 µM, time 25.0 hrs.
Data set [17] concerns Rattus norvegicus. Kind of data set: Analgesic activity in Freund's complete adjuvant induced Lewis rat model of arthritis assessed as increase in mechanical paw withdrawal threshold at 20 mg/kg, po administered every 24 to 48 hrs for 28 days post immunization starting from day 8 post immunization. Type of data set: functional, organism-based. Particulars: time 21.0 day.
Data set [18] can be described thus: Toxicity in male Wistar rat assessed as gastrointestinal damage by measuring number of ulcers at 100 mg/kg administered by gavage and measured after 6 hrs (reference value: 0). Type of data set: organism-based. Particulars: in vivo, po.
Data set [19] concerns Rattus norvegicus. Description: Antiarthritic activity in Freund's complete adjuvant induced Lewis rat model of arthritis assessed as reduction in joint tissue damage by measuring reduction in synovial hyperplasia at 20 mg/kg, po administered every 24 hrs for 28 days post immunization starting from day 8 post immunization by H and E staining based analysis. It is filed as functional, organism-based. Particulars: time 21.0 day.

Data set [20] is described as follows: Toxicity in male Wistar rat assessed as gastrointestinal damage by measuring level-1 ulcers with <1 mm area at 100 mg/kg administered by gavage and measured after 6 hrs. It is filed as organism-based. Particulars: in vivo, po.
Data set [21] is described as follows: Toxicity in male Wistar rat assessed as gastrointestinal damage by measuring level-2 ulcers with 1 to 3 mm area at 100 mg/kg administered by gavage and measured after 6 hrs. Particulars: in vivo, po. Type of data set: organism-based.
Data set [22] has as its system Rattus norvegicus. Kind of data set: Immunomodulatory activity in Freund's complete adjuvant induced Lewis rat model of arthritis assessed as increase in IL-10 level in serum at 20 mg/kg, po administered every 24 to 48 hrs for 28 days post immunization starting from day 8 post immunization by ELISA. The settings on record: time 21.0 day. Type of data set: functional, organism-based.

The species named for data set [23] is Mus musculus. Kind of data set: Analgesic activity in mouse model assessed as reduction in acetic acid induced inflammatory pain. Type of data set: functional, organism-based.
Data set [24] has as its system Rattus norvegicus. Description: Antiarthritic activity in Freund's complete adjuvant induced Lewis rat model of arthritis assessed as inhibition of left hind paw edema at 20 mg/kg, po administered every 24 to 48 hrs for 28 days post immunization starting from day 8 post immunization. Particulars: time 21.0 day. Type of data set: functional, organism-based.

With `CCCCC/C=C\C/C=C\C/C=C\C/C=C\CC/C=C(/OC(=O)C(C)c1ccc(C(=O)c2ccccc2)cc1)C(F)(F)F` (centres undefined), the Activity in [1] was 0; in data set [2], 0%; in [5], “Dose-Dependent Effect”; in [9], “Non-Toxic”; in data set [12], “Dose-Dependent Effect”; in data set [13], “Dose-Dependent Effect”. Besides, the Activity result in data set [16] was “Dose-Dependent Effect”; in data set [18], 7; in [20] it was 86%; in [21] it was 14%. The figures for the UI in [3] and in [6] were 0 and 8, respectively. Moreover, the result in [4], in data set [7], in data set [8], in data set [10], in data set [11] and in data set [14] was Active. Also, the outcome in data set [15], in [17], in data set [19], in data set [22], in data set [23] and in [24] was Active.
